Test system: AhR2 from zebrafish
Test: Fluorescence binding of the ligand probe to recombinant AhR protein (excitation 280 nm, emission 450 nm)
Text: The inventors expressed the encoding gene sequence for the AhR2 from zebrafish in Escherichia coli cells to produce the high yield of a 600 amino acid recombinant protein. The protein was purified by using Histidine tag affinity column. The protocol used allowed to obtain a good yield of pure protein that is correctly folded.
The inventors developed an assay for the Aryl Hydrocarbon Receptor binding activity as an alternative to known methods and investigated which molecules are the most suitable for building a competitive binding assay as in vitro ligands, and to make these molecules fluorescent or more fluorescent. […] The same concentration of ethyl 5,11-dihydroindolo[3,2-b]carbazole-6-carboxylate in aqueous buffer environment has a very low fluorescence signal (FIG. 1, bottom line at 328 nm). […] Indeed if ethyl 5,11-dihydroindolo[3,2-b]carbazole-6-carboxylate is a ligand of AhR it moves from an aqueous environment (buffer) to a more hydrophobic environment (hydrophobic internal binding site of the AhR receptor), causing the increase in fluorescence emission at 450 nm.

CCOC(=O)c1c2[nH]c3ccccc3c2cc2[nH]c3ccccc3c12 [ethyl 5,11-dihydroindolo[3,2-b]carbazole-6-carboxylate]
fluorescence emission on addition to the AhR (binding into the active site) (excited at 280 nm, buffer environment, FIG. 1): causes the appearance of an emission peak with maximum at 450 nm
binding affinity to AhR (result in words, suitability for competitive binding assays): high enough to allow the competition of other compounds to the receptor, yet not too high

Reference: patent US10830772B2, “Detection method and kit” (The European Union, represented by the European Commission, priority 2015, dated 2020)
